In article PMC9315496, “A Comparison of the Photophysical, Electrochemical and Cytotoxic Properties of meso-(2-, 3- and 4-Pyridyl)-BODIPYs and Their Derivatives” (Sensors (Basel, Switzerland), 2022):
Read-outs that look alike come from different tables or passages of the source. Marks after values point to notes of the source that are not given here.

Key:
HEp2 cells [1] = assay: Dark cytotoxicity, Cell Titer Blue; format: cell-based; settings: Homo sapiens, HEp-2, 24 h incubation, read-out: Dark Toxicity (IC50)
Protocol: (§1) Human carcinoma HEp2 cells were obtained from ATCC and maintained in a 75 cm^2 flask (Chemglass) with 1× MEM (Eagle’s minimal essential medium) containing 10% FBS (fetal bovine serum) and 1% antibiotic (penicillin–streptomycin) in a humidified, 5% CO2 incubator at 37 °C. Stock solutions with a concentration of 32 mM in DMSO were prepared for each BODIPY. The stock solution was diluted to the final working concentrations with culture medium. The HEp2 cells were plated at 7500–10,000 cells per well in a Costar 96-well plate and allowed to grow for 24 h. The BODIPY stock solution was diluted to a 200 μM working solution and two-fold serial dilutions were prepared with final concentrations of 200, 100, 50, 25, 12.5, 6.25, and 0 μM. Each BODIPY was incubated for 24 h at 37 °C under 5% CO2. For the dark cytotoxicity experiments, after incubation, excess BODIPY was removed by washing the cells three times with 1× PBS (phosphate-buffered saline) and replacing with media containing 20% Cell Titer Blue (Promega, Madison, WI, USA). The cells were then incubated for additional 24 h at 37 °C under 5% CO2 and the cell toxicity was determined by fluorescence intensity at ex 570/em 615 nm using a FluoStar Optima microplate reader (BMG Labtech, Cary, NC, USA).

HEp2 cells [2] = assay: Phototoxicity (1.5 J/cm^2), Cell Titer Blue; format: cell-based; settings: Homo sapiens, HEp-2, light or radiation study, light dose 1.5 J/cm^2
Protocol: as §1
For the phototoxicity experiments, after incubation the cells were exposed to a light dose of ~1.5 J/cm^2 generated using a 600 W Quartz Tungsten Halogen lamp (Newport Corporation, Irvine, CA, USA). The cells were exposed for 20 min while the 96-well plate rested on an EchoTherm chilling plate (Torrey Pines Scientific, Carlsbad, CA, USA) set to 5 °C. Following light exposure, the loading media was removed and media containing 20% Cell Titer Blue was added. After incubation for 24 h at 37 °C under 5% CO2, the cell viability was determined as described above.

[3] = UV-vis absorption and emission spectroscopy, relative fluorescence quantum yields; format: physicochemical; settings: for λabs / λem: room temperature; for Φf (relative fluorescence quantum yield): standard Ru(bpy)Cl2.6H2O (Φf = 0.028) in H2O, λexc = 436 nm; for bathochromic shift of maximum absorption wavelength upon methylation: experimental
Protocol: UV−vis absorption spectra were collected on a Varian Cary 50 Bio spectrophotometer. Emission spectra were obtained on a PerkinElmer LS55 spectrophotometer, at room temperature. Spectrophotometric grade solvents and quartz cuvettes (1 cm path length) were used. Relative fluorescence quantum yields (Φf) were calculated using rhodamine 6G (Φf = 0.86 in methanol) as reference for the neutral BODIPYs and Ru(bpy)Cl2.6H2O (Φf = 0.028 in water) as the standard for the cationic BODIPYs using the following equation: Φx = Φst × Gradx/Gradst × (ηx/ηst)^2, where the ΦX and ΦST are the quantum yields of the sample and standard, GradX and GradST are the gradients from the plot of integrated fluorescence intensity vs. absorbance, and η represents the refractive index of the solvent (x is for the sample and st for the standard).

Cyclic voltammetry = format: physicochemical
Description: Cyclic voltammograms were collected on a Biologic SP-300 potentiostat using a three-electrode setup with a platinum working electrode (2 mm diameter, CH Instruments), platinum counter electrode (2 mm diameter, CH Instruments), and a silver wire pseudo reference-electrode stored in 0.25 M NBu4PF6 in anhydrous acetonitrile and separated from the electrochemical cell by a glass frit. The electrochemical cell was composed of a borosilicate glass scintillation vial with a custom-machined cap. Working electrodes were polished and then pre-treated by cycling between upper and lower boundaries of the electrochemical window for the experiment in a solution containing only the electrolyte. Measurements were taken in a solution of 0.25 M recrystallized NBu4PF6 in dried and degassed anhydrous acetonitrile. BODIPYs were added to 5 mL of electrolyte solution to give a concentration of 1 mM. Each solution also contained 1 mM ferrocene as an internal reference. Solutions were sparged with N2 before each measurement.

[4] = cited from earlier work
[5] = vs. Fc^+/Fc, 100 mV/s, acetonitrile, 0.25 M NBu4PF6
[6] = vs. Fc^+/Fc, 100 mV/s, acetonitrile, 0.25 M NBu4PF6, PF6^− counterion

SMILES	IC50 (HEp2 cells [1])	IC50 (HEp2 cells [2])	Stokes Shift ([3]; CH3CN)	ε (molar extinction coefficient) ([3]; CH3CN)	λabs ([3]; CH3CN)	λem ([3]; CH3CN)	Φf (relative fluorescence quantum yield) ([3]; CH3CN)	Stokes Shift ([3]; H2O)	ε (molar extinction coefficient) ([3]; H2O)	λabs ([3]; H2O)	λem ([3]; H2O)	Φf (relative fluorescence quantum yield) ([3]; H2O)	fluorescence enhancement relative to the non-chlorinated pyridinium BODIPY ([3]; water)	first reduction wave shift positive compared with the unchlorinated BODIPY (Cyclic voltammetry)	second reduction wave shift positive compared with the unchlorinated BODIPY (Cyclic voltammetry)	anodic peak shift positive compared with the corresponding unchlorinated BODIPY (Cyclic voltammetry; 100 mV/s)	E1/2red, first one-electron reduction (Cyclic voltammetry; [5])	E1/2red, second one-electron reduction (Cyclic voltammetry; [5])	bathochromic shift of maximum absorption wavelength upon methylation ([3]; acetonitrile)	E1/2ox (Cyclic voltammetry; [6])	also measured
CC1=C(Cl)C(C)=[N+]2C1=C(c1cccc[n+]1C)c1c(C)c(Cl)c(C)n1[B-]2(F)F [2catPyCl2, 2,6-Dichloro-8-(N-methyl-2-pyridyl)-1,3,5,7-tetramethyl-BODIPY]	80 µM	80 µM	17 nm	19,420 M^−1 cm ^−1	530 nm	547 nm	0.17 ^b	22 nm	21,000 M^−1 cm ^−1	555 nm	577 nm	0.24	over 200 fold	220 mV	130 mV	70 mV	−0.87 V	−1.16 V			Φf (relative fluorescence quantum yield) ([3]; H2O, listed as 2catPyCl2 (I^−)): 0.24 ^b; E1/2ox (Cyclic voltammetry; vs. Fc^+/Fc, value at 10 V/s, acetonitrile, 0.25 M NBu4PF6): +1.10 ^b V
CC1=CC(C)=[N+]2C1=C(c1ccc[n+](C)c1)c1c(C)cc(C)n1[B-]2(F)F [3catPy, 1,3,5,7-Tetramethyl-8-(N-methyl-3-pyridyl)-BODIPY Iodide]	> 200 µM	> 100 µM	22 nm	65,460 M^−1 cm ^−1	510 nm	532 nm	0.006	20 nm	37,320 M^−1 cm ^−1	510 nm	530 nm	0.005 ^b					−1.26 V	−1.54 V	8 nm	+0.89 V	Φf (relative fluorescence quantum yield) ([3]; CH3CN, listed as 3catPy (I^−)): 0.006 ^b; first reduction, more negative than the two-electron reduction in 4catPy (Cyclic voltammetry): 200 mV; second reduction, more negative than the two-electron reduction in 4catPy (Cyclic voltammetry): 480 mV
CC1=C(Cl)C(C)=[N+]2C1=C(c1ccc[n+](C)c1)c1c(C)c(Cl)c(C)n1[B-]2(F)F [3catPyCl2, 2,6-Dichlo-8-(N-methyl-3-pyridyl)-1,3,5,7-tetramethyl-BODIPY]	120 µM	> 100 µM	20 nm	43,160 M^−1 cm ^−1	540 nm	560 nm	0.23 ^b	24 nm	35,180 M^−1 cm ^−1	540 nm	564 nm	0.47	100 fold	240 mV	120 mV	160 mV	−1.02 V	−1.42 V			Φf (relative fluorescence quantum yield) ([3]; H2O, listed as 3catPyCl2 (I^−)): 0.47 ^b; fluorescence enhancement relative to the non-chlorinated pyridinium BODIPY ([3]; acetonitrile): 38 fold; E1/2ox (oxidation peak potential only, irreversible wave) (Cyclic voltammetry; [5]): +1.10 ^c V
CC1=CC(C)=[N+]2C1=C(c1cc[n+](C)cc1)c1c(C)cc(C)n1[B-]2(F)F [4catPy]	> 200 µM	> 100 µM																	8 nm	+0.89 V	Stokes Shift ([4]; CH3CN): 87 nm; Φf (fluorescence quantum yield) ([4]; CH3CN): 0.019; ε (molar extinction coefficient) ([4]; CH3CN): 26,000 M^−1 cm ^−1; λabs ([4]; CH3CN): 509 nm; λem ([4]; CH3CN): 596 nm; Stokes Shift ([4]; H2O): 91 nm; Φf (fluorescence quantum yield) ([4]; H2O): 0.004; ε (molar extinction coefficient) ([4]; H2O): 31,600 M^−1 cm ^−1; λabs ([4]; H2O): 509 nm; λem ([4]; H2O): 600 nm; E1/2red, two-electron reduction to doubly reduced state (Cyclic voltammetry; [5]): −1.06 ^e V
